Laboratory results published in paper PMC4844702, “Selective inhibition of the kinase DYRK1A by targeting its folding process” (Nature Communications, 2016).

Assays:
Experiment in all cases: Kinase panel (Carna)
Type in all cases: biochemical
RAF1_Cascade = molecular target: T1, RAF1_Cascade (Homo sapiens, UniProt P04049)
T1 construct: purchased Carna Biosciences

AMPKα1/β1/γ1 = molecular target: T2, AMPKα1/β1/γ1 (Homo sapiens, UniProt Q13131)
T2 construct: purchased Carna Biosciences
From the text: (§1) Detailed information on the assay conditions is available on the website of Carna Biosciences (http://www.carnabio.com).

HCK = molecular target: T3, HCK (Homo sapiens, UniProt P08631)
T3 construct: purchased Carna Biosciences
From the text: as §1

MAP3K5_Cascade = molecular target: T4, MAP3K5_Cascade (Homo sapiens, UniProt Q99683)
T4 construct: purchased Carna Biosciences
From the text: as §1

LOK = molecular target: T5, LOK (Homo sapiens, UniProt O94804)
T5 construct: purchased Carna Biosciences

MARK3 = molecular target: T6, MARK3 (Homo sapiens, UniProt P27448)
T6 construct: purchased Carna Biosciences
From the text: as §1

JAK1 = molecular target: T7, JAK1 (Homo sapiens, UniProt P23458)
T7 construct: purchased Carna Biosciences
From the text: as §1

PBK = molecular target: T8, PBK (Homo sapiens, UniProt Q96KB5)
T8 construct: purchased Carna Biosciences
From the text: as §1

PKCζ = molecular target: T9, PKCζ (Homo sapiens, UniProt Q05513)
T9 construct: purchased Carna Biosciences
From the text: as §1

BRAF_Cascade = molecular target: T10, BRAF_Cascade (Homo sapiens, UniProt P15056)
T10 construct: purchased Carna Biosciences
From the text: as §1

PDGFRα = molecular target: T11, PDGFRα (Homo sapiens, UniProt P16234)
T11 construct: purchased Carna Biosciences
From the text: as §1

SLK = molecular target: T12, SLK (Homo sapiens, UniProt Q9H2G2)
T12 construct: purchased Carna Biosciences
T12 sequence (Q9H2G2 whole entry): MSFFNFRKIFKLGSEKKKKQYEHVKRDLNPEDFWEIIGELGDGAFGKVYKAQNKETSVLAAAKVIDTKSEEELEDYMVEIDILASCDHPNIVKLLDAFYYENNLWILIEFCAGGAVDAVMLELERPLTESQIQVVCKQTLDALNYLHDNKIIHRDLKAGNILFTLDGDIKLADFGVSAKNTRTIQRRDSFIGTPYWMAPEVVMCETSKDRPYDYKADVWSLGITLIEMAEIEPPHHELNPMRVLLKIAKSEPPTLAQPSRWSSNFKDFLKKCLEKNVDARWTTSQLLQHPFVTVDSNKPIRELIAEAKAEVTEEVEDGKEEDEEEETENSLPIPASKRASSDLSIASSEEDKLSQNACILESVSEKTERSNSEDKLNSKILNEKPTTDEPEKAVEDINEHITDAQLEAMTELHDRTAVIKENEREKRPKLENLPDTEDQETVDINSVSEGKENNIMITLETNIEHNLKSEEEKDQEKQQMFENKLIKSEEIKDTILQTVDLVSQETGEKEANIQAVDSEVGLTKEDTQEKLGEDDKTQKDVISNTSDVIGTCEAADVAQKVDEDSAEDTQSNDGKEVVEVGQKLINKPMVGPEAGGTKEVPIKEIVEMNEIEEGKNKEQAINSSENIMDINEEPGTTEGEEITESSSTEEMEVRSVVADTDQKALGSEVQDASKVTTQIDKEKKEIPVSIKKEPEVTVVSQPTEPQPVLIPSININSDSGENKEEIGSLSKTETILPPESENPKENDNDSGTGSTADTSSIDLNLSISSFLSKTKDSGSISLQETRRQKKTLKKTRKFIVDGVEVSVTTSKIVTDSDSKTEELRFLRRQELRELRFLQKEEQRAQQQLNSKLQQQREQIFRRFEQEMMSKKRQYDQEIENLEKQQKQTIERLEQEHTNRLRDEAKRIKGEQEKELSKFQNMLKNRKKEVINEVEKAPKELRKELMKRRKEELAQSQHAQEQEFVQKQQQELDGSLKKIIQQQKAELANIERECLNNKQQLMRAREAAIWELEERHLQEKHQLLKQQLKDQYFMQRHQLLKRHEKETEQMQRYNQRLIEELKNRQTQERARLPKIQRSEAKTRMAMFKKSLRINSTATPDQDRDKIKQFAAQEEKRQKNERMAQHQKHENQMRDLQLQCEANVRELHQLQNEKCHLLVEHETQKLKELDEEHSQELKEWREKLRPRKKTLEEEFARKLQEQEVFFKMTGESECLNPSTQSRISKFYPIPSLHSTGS
From the text: as §1

NEK7 = molecular target: T13, NEK7 (Homo sapiens, UniProt Q8TDX7)
T13 construct: purchased Carna Biosciences

MER = molecular target: T14, MER (Homo sapiens, UniProt Q12866)
T14 construct: purchased Carna Biosciences
T14 sequence (Q12866 21-999): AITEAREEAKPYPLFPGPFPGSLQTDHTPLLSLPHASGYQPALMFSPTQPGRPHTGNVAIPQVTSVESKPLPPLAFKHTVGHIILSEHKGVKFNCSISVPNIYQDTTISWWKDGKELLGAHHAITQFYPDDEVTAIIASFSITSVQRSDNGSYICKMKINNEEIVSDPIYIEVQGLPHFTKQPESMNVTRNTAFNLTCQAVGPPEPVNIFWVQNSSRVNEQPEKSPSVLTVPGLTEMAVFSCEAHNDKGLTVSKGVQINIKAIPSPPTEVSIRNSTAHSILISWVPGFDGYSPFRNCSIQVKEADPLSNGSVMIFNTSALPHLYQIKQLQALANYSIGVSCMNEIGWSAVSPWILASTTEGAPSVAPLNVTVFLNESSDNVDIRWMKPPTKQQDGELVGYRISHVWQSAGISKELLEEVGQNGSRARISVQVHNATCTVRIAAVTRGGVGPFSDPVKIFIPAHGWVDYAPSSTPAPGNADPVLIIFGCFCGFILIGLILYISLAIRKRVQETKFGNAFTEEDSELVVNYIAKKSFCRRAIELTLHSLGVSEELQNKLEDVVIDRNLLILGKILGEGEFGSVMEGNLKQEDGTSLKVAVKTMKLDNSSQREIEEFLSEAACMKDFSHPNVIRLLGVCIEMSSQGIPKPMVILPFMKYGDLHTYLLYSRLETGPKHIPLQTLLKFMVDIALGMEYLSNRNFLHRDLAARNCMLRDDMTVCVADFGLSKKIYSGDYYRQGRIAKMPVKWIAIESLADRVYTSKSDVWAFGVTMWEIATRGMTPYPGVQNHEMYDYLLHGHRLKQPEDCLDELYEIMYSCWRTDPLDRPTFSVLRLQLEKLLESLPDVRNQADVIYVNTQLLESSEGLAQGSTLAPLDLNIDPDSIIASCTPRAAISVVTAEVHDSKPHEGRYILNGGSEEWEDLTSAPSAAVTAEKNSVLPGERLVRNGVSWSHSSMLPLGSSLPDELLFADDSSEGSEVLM
From the text: as §1

IRAK1 = molecular target: T15, IRAK1 (Homo sapiens, UniProt P51617)
T15 construct: purchased Carna Biosciences
From the text: as §1

CDK9/CycT1 = molecular target: T16, CDK9/CycT1 (Homo sapiens, UniProt P50750)
T16 construct: purchased Carna Biosciences
From the text: as §1

MST3 = molecular target: T17, MST3 (Homo sapiens, UniProt Q9Y6E0)
T17 construct: purchased Carna Biosciences
T17 sequence (Q9Y6E0 whole entry): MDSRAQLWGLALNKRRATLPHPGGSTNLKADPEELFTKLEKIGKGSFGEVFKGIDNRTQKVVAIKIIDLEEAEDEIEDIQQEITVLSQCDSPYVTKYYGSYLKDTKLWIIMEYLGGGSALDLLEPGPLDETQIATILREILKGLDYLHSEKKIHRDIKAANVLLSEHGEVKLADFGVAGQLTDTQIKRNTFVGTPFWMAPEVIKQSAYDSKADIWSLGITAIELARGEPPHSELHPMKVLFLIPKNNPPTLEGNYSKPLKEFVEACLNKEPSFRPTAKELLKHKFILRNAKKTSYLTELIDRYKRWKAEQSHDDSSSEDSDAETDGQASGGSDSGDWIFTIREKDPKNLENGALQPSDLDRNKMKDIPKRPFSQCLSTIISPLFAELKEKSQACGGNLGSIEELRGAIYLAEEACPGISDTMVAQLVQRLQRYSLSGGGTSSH
From the text: as §1

p70S6Kβ = molecular target: T18, p70S6Kβ (Homo sapiens, UniProt Q9UBS0)
T18 construct: purchased Carna Biosciences
T18 sequence (Q9UBS0 whole entry): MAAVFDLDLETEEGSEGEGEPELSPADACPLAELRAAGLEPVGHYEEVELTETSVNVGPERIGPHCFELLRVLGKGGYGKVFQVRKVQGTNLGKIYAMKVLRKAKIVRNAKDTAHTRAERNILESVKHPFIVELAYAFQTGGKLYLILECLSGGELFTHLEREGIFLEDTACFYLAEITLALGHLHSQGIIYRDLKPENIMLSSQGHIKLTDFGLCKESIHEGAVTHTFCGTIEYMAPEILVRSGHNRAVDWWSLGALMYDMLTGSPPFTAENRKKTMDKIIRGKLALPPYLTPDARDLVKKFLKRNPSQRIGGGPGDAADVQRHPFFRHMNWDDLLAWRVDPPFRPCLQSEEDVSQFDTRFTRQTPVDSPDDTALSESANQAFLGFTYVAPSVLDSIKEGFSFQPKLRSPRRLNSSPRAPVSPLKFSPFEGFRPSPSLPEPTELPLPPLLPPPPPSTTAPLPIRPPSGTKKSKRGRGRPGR
From the text: as §1

EPHA3 = molecular target: T19, EPHA3 (Homo sapiens, UniProt P29320)
T19 construct: purchased Carna Biosciences
T19 sequence (P29320 21-983): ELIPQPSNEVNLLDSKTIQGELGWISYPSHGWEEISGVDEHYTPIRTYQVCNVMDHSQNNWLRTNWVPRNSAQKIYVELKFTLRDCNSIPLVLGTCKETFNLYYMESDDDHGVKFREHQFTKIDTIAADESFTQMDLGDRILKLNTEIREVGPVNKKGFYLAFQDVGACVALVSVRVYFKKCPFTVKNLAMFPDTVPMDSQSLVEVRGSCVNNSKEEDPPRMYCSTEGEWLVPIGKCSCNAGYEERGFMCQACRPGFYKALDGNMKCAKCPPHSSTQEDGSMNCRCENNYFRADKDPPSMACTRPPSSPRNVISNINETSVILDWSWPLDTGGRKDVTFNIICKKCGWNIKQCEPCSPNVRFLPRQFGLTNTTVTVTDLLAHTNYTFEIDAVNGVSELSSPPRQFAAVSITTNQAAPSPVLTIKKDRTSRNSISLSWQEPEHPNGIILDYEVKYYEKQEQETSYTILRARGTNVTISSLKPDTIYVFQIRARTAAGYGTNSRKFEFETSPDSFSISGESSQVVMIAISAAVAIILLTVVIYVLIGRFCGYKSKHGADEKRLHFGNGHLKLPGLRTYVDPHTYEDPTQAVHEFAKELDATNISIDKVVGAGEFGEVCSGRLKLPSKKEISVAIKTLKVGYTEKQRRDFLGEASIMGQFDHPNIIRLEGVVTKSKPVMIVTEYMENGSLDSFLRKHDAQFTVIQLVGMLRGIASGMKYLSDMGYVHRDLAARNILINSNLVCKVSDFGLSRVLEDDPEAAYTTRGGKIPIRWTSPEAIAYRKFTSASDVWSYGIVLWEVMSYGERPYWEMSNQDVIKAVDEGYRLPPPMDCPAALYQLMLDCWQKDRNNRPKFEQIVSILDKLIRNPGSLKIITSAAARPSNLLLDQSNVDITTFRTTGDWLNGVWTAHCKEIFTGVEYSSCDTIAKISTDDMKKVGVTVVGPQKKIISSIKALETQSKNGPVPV

BMX = molecular target: T20, BMX (Homo sapiens, UniProt P51813)
T20 construct: purchased Carna Biosciences
From the text: as §1

CK1δ = molecular target: T21, CK1δ (Homo sapiens, UniProt P48730)
T21 construct: purchased Carna Biosciences

CaMK2γ = molecular target: T22, CaMK2γ (Homo sapiens, UniProt Q13555)
T22 construct: purchased Carna Biosciences

CDK4/CycD3 = molecular target: T23, CDK4/CycD3 (Homo sapiens, UniProt P11802)
T23 construct: purchased Carna Biosciences
From the text: as §1

PHKG1 = molecular target: T24, PHKG1 (Homo sapiens, UniProt Q16816)
T24 construct: purchased Carna Biosciences
From the text: as §1

AXL = molecular target: T25, AXL (Homo sapiens, UniProt P30530)
T25 construct: purchased Carna Biosciences
T25 sequence (P30530 26-894): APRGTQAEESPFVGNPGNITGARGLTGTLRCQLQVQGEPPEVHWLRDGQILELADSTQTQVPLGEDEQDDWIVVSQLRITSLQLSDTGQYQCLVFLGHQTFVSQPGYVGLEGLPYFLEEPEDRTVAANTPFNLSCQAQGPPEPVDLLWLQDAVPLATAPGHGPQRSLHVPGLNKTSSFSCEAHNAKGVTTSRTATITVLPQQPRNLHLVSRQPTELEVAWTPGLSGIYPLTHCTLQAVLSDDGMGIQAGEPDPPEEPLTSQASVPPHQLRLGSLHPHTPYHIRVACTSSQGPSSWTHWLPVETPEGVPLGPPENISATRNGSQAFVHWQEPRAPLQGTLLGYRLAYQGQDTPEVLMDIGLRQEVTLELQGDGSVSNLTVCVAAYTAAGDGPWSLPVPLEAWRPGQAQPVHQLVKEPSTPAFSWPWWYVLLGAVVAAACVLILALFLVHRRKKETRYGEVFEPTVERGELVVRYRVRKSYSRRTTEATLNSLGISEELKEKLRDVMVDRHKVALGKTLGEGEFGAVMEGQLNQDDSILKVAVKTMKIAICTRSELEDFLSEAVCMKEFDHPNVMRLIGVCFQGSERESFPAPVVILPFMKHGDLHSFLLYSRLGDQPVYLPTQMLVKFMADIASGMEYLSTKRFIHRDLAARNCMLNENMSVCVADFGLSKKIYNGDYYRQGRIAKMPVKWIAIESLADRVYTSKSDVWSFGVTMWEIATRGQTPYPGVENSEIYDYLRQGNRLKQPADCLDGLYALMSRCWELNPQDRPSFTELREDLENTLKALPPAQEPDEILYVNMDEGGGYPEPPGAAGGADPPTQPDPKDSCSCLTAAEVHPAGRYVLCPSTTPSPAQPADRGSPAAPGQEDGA
From the text: as §1

MAPKAPK2 = molecular target: T26, MAPKAPK2 (Homo sapiens, UniProt P49137)
T26 construct: purchased Carna Biosciences

MST4 = molecular target: T27, MST4 (Homo sapiens, UniProt Q9P289)
T27 construct: purchased Carna Biosciences
From the text: as §1

MAP3K1_Cascade = molecular target: T28, MAP3K1_Cascade (Homo sapiens, UniProt Q13233)
T28 construct: purchased Carna Biosciences
From the text: as §1

TNIK = molecular target: T29, TNIK (Homo sapiens, UniProt Q9UKE5)
T29 construct: purchased Carna Biosciences
From the text: as §1

PKACβ = molecular target: T30, PKACβ (Homo sapiens, UniProt P22694)
T30 construct: purchased Carna Biosciences

FGR = molecular target: T31, FGR (Homo sapiens, UniProt P09769)
T31 construct: purchased Carna Biosciences

JNK2 = molecular target: T32, JNK2 (Homo sapiens, UniProt P45984)
T32 construct: purchased Carna Biosciences

MAPKAPK3 = molecular target: T33, MAPKAPK3 (Homo sapiens, UniProt Q16644)
T33 construct: purchased Carna Biosciences

DDR1 = molecular target: T34, DDR1 (Homo sapiens, UniProt Q08345)
T34 construct: purchased Carna Biosciences

CRIK = molecular target: T35, CRIK (Homo sapiens, UniProt O14578)
T35 construct: purchased Carna Biosciences

JNK1 = molecular target: T36, JNK1 (Homo sapiens, UniProt P45983)
T36 construct: purchased Carna Biosciences
From the text: as §1

ROCK2 = molecular target: T37, ROCK2 (Homo sapiens, UniProt O75116)
T37 construct: purchased Carna Biosciences

Haspin = molecular target: T38, Haspin (Homo sapiens, UniProt Q8TF76)
T38 construct: purchased Carna Biosciences

IRAK4 = molecular target: T39, IRAK4 (Homo sapiens, UniProt Q9NWZ3)
T39 construct: purchased Carna Biosciences
From the text: as §1

CGK2 = molecular target: T40, CGK2 (Homo sapiens, UniProt Q13237)
T40 construct: purchased Carna Biosciences
From the text: as §1

MST2 = molecular target: T41, MST2 (Homo sapiens, UniProt Q13188)
T41 construct: purchased Carna Biosciences
From the text: as §1

MAP2K1_Cascade = molecular target: T42, MAP2K1_Cascade (Homo sapiens, UniProt Q02750)
T42 construct: purchased Carna Biosciences

PDGFRβ = molecular target: T43, PDGFRβ (Homo sapiens, UniProt P09619)
T43 construct: purchased Carna Biosciences
From the text: as §1

COT_Cascade = molecular target: T44, COT_Cascade (Homo sapiens, UniProt P41279)
T44 construct: purchased Carna Biosciences

COc1ccc(/C=C2\SC(=S)NC2=O)cc1C#C[Si](C)(C)C [FINDY]
inhibition at 10 µM (RAF1_Cascade): 50.9%
inhibition at 10 µM (AMPKα1/β1/γ1): 8.6%
inhibition at 10 µM (HCK): 35.3%
inhibition at 10 µM (MAP3K5_Cascade): 32.1%
inhibition at 10 µM (LOK): -28.2%
inhibition at 10 µM (MARK3): 50.6%
inhibition at 10 µM (JAK1): 5.7%
inhibition at 10 µM (PBK): 14.6%
inhibition at 10 µM (PKCζ): -6.1%
inhibition at 10 µM (BRAF_Cascade): 33.9%
inhibition at 10 µM (PDGFRα): 14.8%
inhibition at 10 µM (SLK): -35%
inhibition at 10 µM (NEK7): -12.3%
inhibition at 10 µM (MER): 3.4%
inhibition at 10 µM (IRAK1): -1.1%
inhibition at 10 µM (CDK9/CycT1): 3.1%
inhibition at 10 µM (MST3): 6.4%
inhibition at 10 µM (p70S6Kβ): 19.9%
inhibition at 10 µM (EPHA3): 20.8%
inhibition at 10 µM (BMX): 10.5%
inhibition at 10 µM (CK1δ): 29.1%
inhibition at 10 µM (CaMK2γ): -4.6%
inhibition at 10 µM (CDK4/CycD3): 8%
inhibition at 10 µM (PHKG1): 8.9%
inhibition at 10 µM (AXL): 6.7%
inhibition at 10 µM (MAPKAPK2): 51.9%
inhibition at 10 µM (MST4): 16.7%
inhibition at 10 µM (MAP3K1_Cascade): 44.4%
inhibition at 10 µM (TNIK): 10.7%
inhibition at 10 µM (PKACβ): 65.3%
inhibition at 10 µM (FGR): 5.3%
inhibition at 10 µM (JNK2): 0.4%
inhibition at 10 µM (MAPKAPK3): 29.2%
inhibition at 10 µM (DDR1): -3.2%
inhibition at 10 µM (CRIK): 1.9%
inhibition at 10 µM (JNK1): 1.5%
inhibition at 10 µM (ROCK2): -2%
inhibition at 10 µM (Haspin): 30.3%
inhibition at 10 µM (IRAK4): -0.8%
inhibition at 10 µM (CGK2): 14.6%
inhibition at 10 µM (MST2): -5.7%
inhibition at 10 µM (MAP2K1_Cascade): 44.2%
inhibition at 10 µM (PDGFRβ): 8.2%
inhibition at 10 µM (COT_Cascade): 55.4%
